Test results published in patent US11053204B2, “Pyrimidinyloxy benzene derivatives as herbicides” (FMC Corporation, priority 2015, dated 2021).

Assays:
Format in all cases: in vivo
rice (Oryza sativa) = test: Test B flooded paddy test, plant response rating; conditions: 250 g ai/ha; Flood; scale of 0 to 100 where 0 is no effect and 100 is complete control; 13 to 15 days
Procedure, shortened: (§1)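 Pots were flooded to 3 cm above the soil surface at treatment, compound applied directly to the paddy water, and that depth held throughout. Plants were kept in a greenhouse for 13 to 15 days, then visually rated against untreated controls.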

[1] = tested on: sedge, umbrella (small-flower umbrella sedge, Cyperus difformis); test: Test B flooded paddy test, plant response rating; conditions: 250 g ai/ha; Flood; scale of 0 to 100 where 0 is no effect and 100 is complete control; 13 to 15 days
Procedure, shortened: as §1

[2] = tested on: barnyardgrass (Echinochloa crus-galli); test: Test B flooded paddy test, plant response rating; conditions: 250 g ai/ha; Flood; scale of 0 to 100 where 0 is no effect and 100 is complete control; 13 to 15 days
Procedure, shortened: as §1

[3] = tested on: wild poinsettia (Euphorbia heterophylla); test: Test C preemergence, plant response rating
[4] = tested on: waterhemp (common waterhemp, Amaranthus rudis); test: Test C preemergence, plant response rating; conditions: Preemergence
Procedure, shortened: (§2)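 Visual injury score, 0 = no effect, 100 = complete control, assigned against untreated controls after 13 to 15 d in the greenhouse. Compounds were applied in a surfactant-containing non-phytotoxic solvent mix, preemergence to seeded loam/sand or silt loam soil, or postemergence to 1- to 4-leaf plants (2 to 18 cm).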

[5] = tested on: ryegrass, Italian (Italian ryegrass, Lolium multiflorum); test: Test C preemergence, plant response rating; conditions: Preemergence
Procedure, shortened: as §2

[6] = tested on: blackgrass (Alopecurus myosuroides); test: Test C preemergence, plant response rating; conditions: Preemergence
Procedure, shortened: as §2

[7] = tested on: lambsquarters (Chenopodium album); test: Test C preemergence, plant response rating; conditions: Preemergence
Procedure, shortened: as §2

[8] = tested on: ragweed (common ragweed, Ambrosia elatior); test: Test C preemergence, plant response rating; conditions: Preemergence
Procedure, shortened: as §2

[9] = tested on: oilseed rape (Brassica napus); test: Test C preemergence, plant response rating; conditions: Preemergence
Procedure, shortened: as §2

[10] = tested on: foxtail, giant (giant foxtail, Setaria faberii); test: Test C preemergence, plant response rating; conditions: Preemergence
Procedure, shortened: as §2

[11] = tested on: nutsedge, yellow (yellow nutsedge, Cyperus esculentus); test: Test C preemergence, plant response rating; conditions: Preemergence
Procedure, shortened: as §2

soybean (Glycine max) = test: Test C preemergence, plant response rating; conditions: Preemergence
Procedure, shortened: as §2

[12] = tested on: morningglory (Ipomoea coccinea); test: Test C preemergence, plant response rating; conditions: Preemergence
Procedure, shortened: as §2

[13] = tested on: velvetleaf (Abutilon theophrasti); test: Test C preemergence, plant response rating; conditions: Preemergence
Procedure, shortened: as §2

corn (Zea mays) = test: Test C preemergence, plant response rating; conditions: Preemergence
Procedure, shortened: as §2

[14] = tested on: wheat (winter wheat, Triticum aestivum); test: Test C preemergence, plant response rating; conditions: Preemergence
Procedure, shortened: as §2

[15] = tested on: crabgrass, large (large crabgrass, Digitaria sanguinalis); test: Test C preemergence, plant response rating; conditions: Preemergence
Procedure, shortened: as §2

[16] = tested on: surinam grass (Brachiaria decumbens); test: Test C preemergence, plant response rating
[17] = tested on: oat, wild (wild oat Avena fatua); test: Test C preemergence, plant response rating

## O=C(CCCC(F)(F)F)c1c(Oc2ncc(Cl)cn2)cccc1C(F)(F)F [Compound 125]
Rice (Oryza sativa)
  Plant response rating, Rice: 35
[1]
  Plant response rating, Sedge, Umbrella: 90
[2]
  Plant response rating, Barnyardgrass: 45
[3]; 31 g ai/ha, scale 0 to 100
  Plant response rating, Poinsettia, Wild: 0
[3]; 62 g ai/ha, scale 0 to 100
  Plant response rating, Poinsettia, Wild: 25
[3]; 125 g ai/ha, scale of 0 to 100
  Plant response rating, Poinsettia, Wild: 30
[4]; 125 g ai/ha, scale of 0 to 100
  Plant response rating, Waterhemp: 100
[4]; 31 g ai/ha, scale 0 to 100
  Plant response rating, Waterhemp: 100
[4]; 62 g ai/ha, scale 0 to 100
  Plant response rating, Waterhemp: 100
[5]; 125 g ai/ha, scale of 0 to 100
  Plant response rating, Ryegrass, Italian: 85
[5]; 31 g ai/ha, scale 0 to 100
  Plant response rating, Ryegrass, Italian: 30
[5]; 62 g ai/ha, scale 0 to 100
  Plant response rating, Ryegrass, Italian: 40
[6]; 125 g ai/ha, scale of 0 to 100
  Plant response rating, Blackgrass: 90
[6]; 16 g ai/ha, scale 0 to 100
  Plant response rating, Blackgrass: 5
[6]; 31 g ai/ha, scale 0 to 100
  Plant response rating, Blackgrass: 60
[6]; 62 g ai/ha, scale 0 to 100
  Plant response rating, Blackgrass: 60
[7]; 125 g ai/ha, scale of 0 to 100
  Plant response rating, Lambsquarters: 95
[7]; 31 g ai/ha, scale 0 to 100
  Plant response rating, Lambsquarters: 30
[7]; 62 g ai/ha, scale 0 to 100
  Plant response rating, Lambsquarters: 60
[8]; 125 g ai/ha, scale of 0 to 100
  Plant response rating, Ragweed: 35
[8]; 31 g ai/ha, scale 0 to 100
  Plant response rating, Ragweed: 10
[8]; 62 g ai/ha, scale 0 to 100
  Plant response rating, Ragweed: 5
[9]; 125 g ai/ha, scale of 0 to 100
  Plant response rating, Oilseed Rape: 80
[9]; 31 g ai/ha, scale 0 to 100
  Plant response rating, Oilseed Rape: 5
[9]; 62 g ai/ha, scale 0 to 100
  Plant response rating, Oilseed Rape: 50
[10]; 125 g ai/ha, scale of 0 to 100
  Plant response rating, Foxtail, Giant: 100
[10]; 31 g ai/ha, scale 0 to 100
  Plant response rating, Foxtail, Giant: 85
[10]; 62 g ai/ha, scale 0 to 100
  Plant response rating, Foxtail, Giant: 98
[11]; 125 g ai/ha, scale of 0 to 100
  Plant response rating, Nutsedge, Yellow: 5
[11]; 31 g ai/ha, scale 0 to 100
  Plant response rating, Nutsedge, Yellow: 0
[11]; 62 g ai/ha, scale 0 to 100
  Plant response rating, Nutsedge, Yellow: 0
Soybean (Glycine max); 125 g ai/ha, scale of 0 to 100
  Plant response rating, Soybean: 20
Soybean (Glycine max); 31 g ai/ha, scale 0 to 100
  Plant response rating, Soybean: 0
Soybean (Glycine max); 62 g ai/ha, scale 0 to 100
  Plant response rating, Soybean: 0
[12]; 125 g ai/ha, scale of 0 to 100
  Plant response rating, Morningglory: 50
[12]; 31 g ai/ha, scale 0 to 100
  Plant response rating, Morningglory: 10
[12]; 62 g ai/ha, scale 0 to 100
  Plant response rating, Morningglory: 10
[13]; 125 g ai/ha, scale of 0 to 100
  Plant response rating, Velvetleaf: 65
[13]; 31 g ai/ha, scale 0 to 100
  Plant response rating, Velvetleaf: 5
[13]; 62 g ai/ha, scale 0 to 100
  Plant response rating, Velvetleaf: 60
Corn (Zea mays); 125 g ai/ha, scale of 0 to 100
  Plant response rating, Corn: 5
Corn (Zea mays); 16 g ai/ha, scale 0 to 100
  Plant response rating, Corn: 0
Corn (Zea mays); 31 g ai/ha, scale 0 to 100
  Plant response rating, Corn: 0
Corn (Zea mays); 62 g ai/ha, scale 0 to 100
  Plant response rating, Corn: 5
[14]; 125 g ai/ha, scale of 0 to 100
  Plant response rating, Wheat: 5
[14]; 31 g ai/ha, scale 0 to 100
  Plant response rating, Wheat: 0
[14]; 62 g ai/ha, scale 0 to 100
  Plant response rating, Wheat: 0
[15]; 125 g ai/ha, scale of 0 to 100
  Plant response rating, Crabgrass, Large: 100
[15]; 16 g ai/ha, scale 0 to 100
  Plant response rating, Crabgrass, Large: 35
[15]; 31 g ai/ha, scale 0 to 100
  Plant response rating, Crabgrass, Large: 98
[15]; 62 g ai/ha, scale 0 to 100
  Plant response rating, Crabgrass, Large: 100
[16]; 31 g ai/ha, scale 0 to 100
  Plant response rating, Surinam Grass: 20
[16]; 62 g ai/ha, scale 0 to 100
  Plant response rating, Surinam Grass: 40
[16]; 125 g ai/ha, scale of 0 to 100
  Plant response rating, Surinam Grass: 65
[17]; 31 g ai/ha, scale 0 to 100
  Plant response rating, Oat, Wild: 0
[17]; 62 g ai/ha, scale 0 to 100
  Plant response rating, Oat, Wild: 10
[17]; 125 g ai/ha, scale of 0 to 100
  Plant response rating, Oat, Wild: 55
